What is called IC50 is the concentration that inhibits the measured activity by half. By Kd is commonly meant the equilibrium constant for the complex coming apart.

Among the data in ChEMBL document CHEMBL4819076, “An affinity prediction approach for the ligand of E3 ligase Cbl-b and an insight into substrate binding pattern” (Bioorg Med Chem, 2021) are IC50 and Kd values, retold here.

Where a SMILES comes first, the peptide text is derived from it. [ ]: non-standard residue; d: D form. pY = N[C@@H](Cc1ccc(OP(=O)(O)O)cc1)C(=O)O

The target of experiment [1] is T1, E3 ubiquitin-protein ligase CBL-B (Homo sapiens, UniProt Q13191). Kind of experiment: Binding affinity to recombinant His-tagged Cbl-b (unknown origin) (39 to 368 residues) expressed in Escherichia coli BL21 (DE3) using FITC-DGpYPEPA-NH2 as substrate incubated for 30 mins by fluorescence polarization assay. A general note: Fluorescence polarisation rises when a labelled molecule tumbles more slowly, as on binding a larger partner.
T1 sequence (Q13191 whole entry, the tested form may be a part): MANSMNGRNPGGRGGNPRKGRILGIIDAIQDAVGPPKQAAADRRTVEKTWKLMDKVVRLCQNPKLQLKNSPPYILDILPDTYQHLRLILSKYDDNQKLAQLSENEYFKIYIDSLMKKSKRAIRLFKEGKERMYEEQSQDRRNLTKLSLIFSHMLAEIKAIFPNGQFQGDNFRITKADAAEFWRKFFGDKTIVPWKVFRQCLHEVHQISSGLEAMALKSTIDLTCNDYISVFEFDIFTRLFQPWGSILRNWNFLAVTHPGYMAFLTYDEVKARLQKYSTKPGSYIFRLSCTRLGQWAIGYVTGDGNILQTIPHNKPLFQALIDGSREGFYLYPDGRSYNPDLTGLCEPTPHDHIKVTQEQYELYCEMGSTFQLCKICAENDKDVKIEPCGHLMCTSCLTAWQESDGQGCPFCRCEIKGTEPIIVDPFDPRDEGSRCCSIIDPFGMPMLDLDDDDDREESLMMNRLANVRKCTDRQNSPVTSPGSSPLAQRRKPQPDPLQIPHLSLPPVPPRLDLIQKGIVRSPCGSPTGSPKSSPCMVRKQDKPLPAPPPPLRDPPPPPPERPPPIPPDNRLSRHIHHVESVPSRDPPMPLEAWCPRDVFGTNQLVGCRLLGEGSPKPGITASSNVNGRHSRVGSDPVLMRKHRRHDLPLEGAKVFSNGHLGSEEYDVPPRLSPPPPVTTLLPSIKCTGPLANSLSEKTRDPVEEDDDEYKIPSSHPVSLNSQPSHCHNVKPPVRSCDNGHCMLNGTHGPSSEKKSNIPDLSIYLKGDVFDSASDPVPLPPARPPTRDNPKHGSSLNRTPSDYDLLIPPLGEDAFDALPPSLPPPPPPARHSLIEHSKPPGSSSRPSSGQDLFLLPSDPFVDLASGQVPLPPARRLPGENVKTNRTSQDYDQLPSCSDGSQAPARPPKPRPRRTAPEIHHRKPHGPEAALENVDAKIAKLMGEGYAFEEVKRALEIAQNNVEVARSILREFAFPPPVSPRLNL

The target in experiment [2] is T1, E3 ubiquitin-protein ligase CBL-B. Kind of experiment: Binding affinity to recombinant His-tagged Cbl-b (unknown origin) (39 to 368 residues) expressed in Escherichia coli BL21 (DE3) assessed as dissociation constant by bio-layer interferometry assay. For orientation: BLI is a label-free optical method that tracks binding on a fibre tip over time.

Take `CC(=O)N[C@@H](Cc1ccc(OP(=O)(O)O)cc1)C(=O)N[C@H](C(=O)N1CCC[C@H]1C(=O)N[C@@H](CCC(=O)O)C(=O)N1CCC[C@H]1C(N)=O)[C@@H](C)O`: the IC50 in experiment [1] amounted to 7.84 µM. Moreover, the Kd in experiment [2] was 5.55 µM.
The corresponding values for `CC(=O)N[C@@H](CC(=O)O)C(=O)NCC(=O)N[C@@H](Cc1ccc(OP(=O)(O)O)cc1)C(=O)N[C@H](C(=O)N1CCC[C@H]1C(=O)N[C@@H](CCC(=O)O)C(=O)N1CCC[C@H]1C(=O)N[C@@H](C)C(N)=O)[C@@H](C)O` (Ac-DG[pY]TPEPA-NH2) are 10.6 µM and 24.4 µM.
As to `CC(=O)NCC(=O)N[C@@H](Cc1ccc(OP(=O)(O)O)cc1)C(=O)N[C@H](C(=O)N1CCC[C@H]1C(=O)N[C@@H](CCC(=O)O)C(=O)N1CCC[C@H]1C(N)=O)[C@@H](C)O` (Ac-G[pY]TPEP-NH2), the IC50 in experiment [1] is 11.3 µM. Moreover, in experiment [2], the Kd is 22.4 µM.
For the compound `CC(=O)N[C@@H](CC(C)C)C(=O)N[C@@H](CCC(N)=O)C(=O)N[C@@H](CCCNC(=N)N)C(=O)N[C@@H](Cc1ccc(OP(=O)(O)O)cc1)C(=O)N[C@@H](CO)C(=O)N[C@@H](CO)C(=O)N[C@@H](CC(=O)O)C(=O)N1CCC[C@H]1C(=O)N[C@H](C(=O)NCC(N)=O)[C@@H](C)O` (Ac-LQR[pY]SSDPTG-NH2), in experiment [2], the Kd was determined as 8.28 µM.
Still for that read-out and setting: to `CC(=O)N[C@@H](CCCNC(=N)N)C(=O)N[C@@H](Cc1ccc(OP(=O)(O)O)cc1)C(=O)N[C@H](C(=O)N1CCC[C@H]1C(=O)N[C@@H](CCC(=O)O)C(=O)N1CCC[C@H]1C(N)=O)[C@@H](C)O` (Ac-R[pY]TPEP-NH2) belongs 0.763 µM.
With `CC(=O)N[C@@H](Cc1ccc(OP(=O)(O)O)cc1)C(=O)N[C@@H](C)C(=O)N1CCC[C@H]1C(=O)N[C@@H](CCC(=O)O)C(=O)N1CCC[C@H]1C(N)=O` (Ac-[pY]APEP-NH2), the IC50 in experiment [1] came to 104 µM. For the same compound, the dissociation constant (Kd) in experiment [2] was found to be 57.1 µM.
The matching figures for `CC(=O)N[C@@H](Cc1ccc(OP(=O)(O)O)cc1)C(=O)N[C@H](C(=O)N[C@@H](C)C(=O)N[C@@H](CCC(=O)O)C(=O)N1CCC[C@H]1C(N)=O)[C@@H](C)O` (Ac-[pY]TAEP-NH2): 27.3 µM and 24.4 µM.
For the compound `CC[C@H](C)[C@H](NC(=O)[C@@H](NC(=O)[C@H](Cc1ccc(OP(=O)(O)O)cc1)NC(C)=O)[C@@H](C)O)C(=O)N[C@@H](CCC(=O)O)C(=O)N1CCC[C@H]1C(N)=O` (Ac-[pY]TIEP-NH2), in experiment [2], the Kd is 35.5 µM.
The same measure, in the same setting: then `CC(=O)N[C@@H](Cc1ccc(OP(=O)(O)O)cc1)C(=O)N[C@H](C(=O)N[C@@H](CC(C)C)C(=O)N[C@@H](CCC(=O)O)C(=O)N1CCC[C@H]1C(N)=O)[C@@H](C)O` (Ac-[pY]TLEP-NH2), with 29.8 µM.
In the case of `CC(=O)N[C@@H](Cc1ccc(OP(=O)(O)O)cc1)C(=O)N[C@H](C(=O)N1CCC[C@H]1C(=O)N[C@@H](C)C(=O)N1CCC[C@H]1C(N)=O)[C@@H](C)O` (Ac-[pY]TPAP-NH2), the IC50 in experiment [1] turned out to be 46.3 µM. Moreover, the Kd in experiment [2] is 18.5 µM.
As for `CC(=O)N[C@@H](Cc1ccc(OP(=O)(O)O)cc1)C(=O)N[C@H](C(=O)N1CCC[C@H]1C(=O)N[C@@H](CC(=O)O)C(=O)N1CCC[C@H]1C(N)=O)[C@@H](C)O` (Ac-[pY]TPDP-NH2), the equilibrium dissociation constant (Kd) in experiment [2] turned out to be 22.9 µM.
`CC(=O)N[C@@H](Cc1ccc(OP(=O)(O)O)cc1)C(=O)N[C@H](C(=O)N1CCC[C@H]1C(=O)N[C@@H](CCC(=O)O)C(N)=O)[C@@H](C)O` (Ac-[pY]TPE-NH2): the IC50 in experiment [1] turned out to be 398 µM. Also, in experiment [2], the Kd stood at 98.3 µM.
Regarding `CC(=O)N[C@@H](Cc1ccc(OP(=O)(O)O)cc1)C(=O)N[C@H](C(=O)N1CCC[C@H]1C(=O)N[C@@H](CCC(=O)O)C(=O)N[C@@H](Cc1ccccc1)C(N)=O)[C@@H](C)O` (Ac-[pY]TPEF-NH2), in experiment [2], the Kd was 33.5 µM.
The same measure, in the same setting: then `CC(=O)N[C@@H](Cc1ccc(OP(=O)(O)O)cc1)C(=O)N[C@H](C(=O)N1CCC[C@H]1C(=O)N[C@@H](CCC(N)=O)C(=O)N1CCC[C@H]1C(N)=O)[C@@H](C)O` (Ac-[pY]TPQP-NH2), with 43.4 µM.
In the case of `C[C@@H](O)[C@H](NC(=O)[C@H](Cc1ccc(OP(=O)(O)O)cc1)NC(=O)CN)C(=O)N1CCC[C@H]1C(=O)N[C@@H](CCC(=O)O)C(=O)O` (H-G[pY]TPE-OH), the IC50 in experiment [1] is more than 1000 µM.
For the compound Ac-ETPEP-NH2, in experiment [1], the IC50 was more than 1000 µM.
